# Test results: paper PMC12217481, “Structure and mechanism of taniborbactam inhibition of the cefepime-hydrolyzing, partial R2-loop deletion Pseudomonas-derived cephalosporinase variant PDC-88” (Antimicrobial Agents and Chemotherapy, 2025)
# Key:
# [1] = system: isogenic E. coli strains expressing PDC R2-loop deletion variants (PDC-88 to PDC-92); test: MIC changes across the five isogenic E. coli R2-loop deletion strains; format: cell-based, Escherichia coli; settings: inhibitor at constant 4 µg/mL; R2-loop deletion variant strains
# Method: Modal broth microdilution MICs (or median broth microdilution MICs where appropriate) were determined in accordance with Clinical and Laboratory Standards Institute (CLSI) M07 guidelines ([43]). Isogenic E. coli DH10B cells expressing the abovementioned plasmid-encoded PDC constructs were used. […] CLSI quality control strains Escherichia coli NCTC 13353, E. coli ATCC 35218, and Klebsiella pneumoniae ATCC 700603 were used during testing ([24]).
# PDC-3 [2] = target: T1, PDC-3 (Pseudomonas aeruginosa, UniProt P24735, T105A); test: Competitive inhibition assay with nitrocefin (Ki app, IC50), PDC-3; format: biochemical
# T1 construct: The PDC-3 expression construct was created in a similar manner but starting with a previously described pBC SK(−) vector; made in house; host or cells: E. coli BL21-CodonPlus (DE3)-RP, pET24a(+)
# Method: (§1) β-Lactamase kinetic and inhibitor constants were determined using an Agilent 8453 UV-Visible Spectrophotometer to record progress curves and determine initial rates and other kinetic parameters as appropriate. Reactions were carried out in 1× phosphate-buffered saline (PBS) (pH 7.4) at room temperature in a 0.2 cm path-length quartz cuvette (Hellma Analytics). Reads were taken every 10 s to minimize UV-mediated background hydrolysis.
# (§2) Competitive inhibition assays were used to determine IC50 and Ki app. Nitrocefin (a reporter substrate), enzyme, and inhibitor were mixed, and initial velocities were determined. […] Inverse steady-state velocities (1/V0) were plotted against inhibitor concentration ([I]), forming a straight line. The y-intercept of this line was divided by the slope of the line to yield Ki app obs and IC50 values. Apparent Ki values (Ki app) were determined by correcting for the affinity of nitrocefin in the active site using equation 2:
# (§3) (2) KI app= KI app{obs/1+[S]/KM NCF
# PDC-88 [3] = target: T2, PDC-88 (Pseudomonas aeruginosa, UniProt P24735, DEL316-317/G27D/G391A/T105A/V205L/V356I); test: biochemical; format: biochemical
# T2 construct: NdeI 5′-[…]-3ʹ and BamHI 5ʹ-[…]-3ʹ; His tag removed) (N); made in house; host or cells: E. coli BL21-CodonPlus (DE3)-RP, pET24a(+)
# Method: as §1, §2, §3
# PDC-3 [4] = target: T1, PDC-3; test: Off-rate (koff) by jump-dilution, PDC-3; format: biochemical
# Method: (§4) The off-rates (koff) were determined using a jump-dilution method ([44]). […] The enzyme was serially diluted to 1 nM, and 100 μM nitrocefin was added to initiate the reaction. Recovery progress covers were recorded at 482 nm. The koff value was determined by fitting the progress curves to a single exponential equation. The half-life was determined by dividing ln(2) by koff.
# PDC-88 [5] = target: T2, PDC-88; test: Off-rate (koff) by jump-dilution, PDC-88; format: biochemical
# Method: as §4
# PDC-3 [6] = target: T1, PDC-3; test: Thermal denaturation by circular dichroism, PDC-3; format: binding
# Method: Competitive enzyme inhibitors can increase enzyme thermal stability as a result of binding to the active site.
# Circular dichroism (CD) melting curve experiments were conducted using a J-815 spectropolarimeter (Jasco) and a Peltier effect temperature controller. Suprasil quartz cuvettes with a 0.1 cm path length (Hellma Analytics) were used in all experiments. […] Two-state behavior was observed, as indicated by identical curves at each wavelength. Equilibrium constants were calculated, and the melting temperature, Tm, was calculated from equilibrium denaturation data as previously described ([28]).
# PDC-88 [7] = target: T2, PDC-88; format: binding
# Method: Circular dichroism (CD) melting curve experiments were conducted using a J-815 spectropolarimeter (Jasco) and a Peltier effect temperature controller. Suprasil quartz cuvettes with a 0.1 cm path length (Hellma Analytics) were used in all experiments. […] Equilibrium constants were calculated, and the melting temperature, Tm, was calculated from equilibrium denaturation data as previously described ([28]).
compound,measurement,setting,value
"NCCN[C@H]1CC[C@H](CC(=O)N[C@H]2Cc3cccc(C(=O)O)c3OB2O)CC1 [TAN, taniborbactam]",restoration of FEP activity / susceptibility by inhibitor,[1],restoring FEP activity in all cases
same,Ki app lower compared to avibactam,PDC-3 [2],4.1 fold
same,Ki app lower than TZB,PDC-3 [2],40 fold
same,Ki,PDC-3 [2]; nitrocefin reporter substrate,660 ± 70 nM
same,IC50,"PDC-3 [2]; nitrocefin reporter substrate, 5 min preincubation",16 ± 2 nM
same,IC50,PDC-88 [3],22 ± 2 nM
same,Ki,PDC-88 [3],610 ± 60 nM
same,Ki app lower compared to avibactam,PDC-88 [3]; PDC-88,9 fold
same,Ki app lower than TZB,PDC-88 [3]; PDC-88,95 fold
same,koff,PDC-3 [4],0.0012 ± 0.0001 s⁻¹
same,koff,PDC-88 [5],0.0007 ± 0.0001 s⁻¹
same,increase of Tm upon addition of inhibitor,PDC-3 [6]; PDC-3,+9 °C
same,Tm,"PDC-3 [6]; PDC-3 with inhibitor, circular dichroism, PDC-3 alone 52°C",61 °C
same,increase of Tm upon addition of inhibitor,PDC-88 [7]; PDC-88,+7 °C
same,Tm,"PDC-88 [7]; PDC-88 with inhibitor, circular dichroism, PDC-88 alone 53°C",60 °C
